Data as given in patent US12433882B2, “Treatments for amyotrophic lateral sclerosis using dazucorilant” (Corcept Therapeutics Incorporated, priority 2022, dated 2025).
pKi: −log10 of the molar value.

Tests used:
GR [1] = target: T1, GR (Homo sapiens, UniProt P04150); experiment: GR binding (competitive, reversible); conditions: read-out: affinity for GR
T1 sequence (P04150 1-777): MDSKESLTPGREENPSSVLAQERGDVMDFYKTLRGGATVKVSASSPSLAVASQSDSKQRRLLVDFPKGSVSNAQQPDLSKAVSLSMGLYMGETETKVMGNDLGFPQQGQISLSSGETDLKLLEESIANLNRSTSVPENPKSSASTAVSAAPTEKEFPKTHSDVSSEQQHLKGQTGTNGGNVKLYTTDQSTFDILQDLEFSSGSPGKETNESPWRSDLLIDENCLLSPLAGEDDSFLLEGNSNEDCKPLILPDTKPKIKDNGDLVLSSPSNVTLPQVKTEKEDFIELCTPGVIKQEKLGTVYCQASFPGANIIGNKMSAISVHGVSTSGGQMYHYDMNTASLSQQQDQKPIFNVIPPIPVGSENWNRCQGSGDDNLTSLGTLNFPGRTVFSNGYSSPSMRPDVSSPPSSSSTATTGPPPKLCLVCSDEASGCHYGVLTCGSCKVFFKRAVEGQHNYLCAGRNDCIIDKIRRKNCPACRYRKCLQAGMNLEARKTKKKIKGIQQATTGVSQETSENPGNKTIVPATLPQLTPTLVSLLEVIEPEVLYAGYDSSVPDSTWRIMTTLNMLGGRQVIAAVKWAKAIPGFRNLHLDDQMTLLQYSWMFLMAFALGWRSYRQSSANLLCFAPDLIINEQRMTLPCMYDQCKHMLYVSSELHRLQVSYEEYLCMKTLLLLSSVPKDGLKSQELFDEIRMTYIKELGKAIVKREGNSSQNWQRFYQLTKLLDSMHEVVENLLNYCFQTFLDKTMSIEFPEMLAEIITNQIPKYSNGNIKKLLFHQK
Procedure: Dazucorilant is selective for GR over other nuclear hormone receptors, and a range of other receptors, enzymes, and ion channels. For example, dazucorilant has high selectivity for GR relative to the progesterone receptor (PR), androgen receptor, and estrogen receptor, showing no significant binding to these receptors at a concentration of 10 μM (0%, 1.5% and […], respectively).

GR [2] = target: T2, GR (Rattus norvegicus, UniProt P06536); experiment: Inhibition of dexamethasone effect on TAT activity, rat hepatoma cell line; type: cell-based; conditions: read-out: Kc, inhibition of dexamethasone effects on TAT activity
T2 construct: endogenous in cells
T2 sequence (P06536 1-795): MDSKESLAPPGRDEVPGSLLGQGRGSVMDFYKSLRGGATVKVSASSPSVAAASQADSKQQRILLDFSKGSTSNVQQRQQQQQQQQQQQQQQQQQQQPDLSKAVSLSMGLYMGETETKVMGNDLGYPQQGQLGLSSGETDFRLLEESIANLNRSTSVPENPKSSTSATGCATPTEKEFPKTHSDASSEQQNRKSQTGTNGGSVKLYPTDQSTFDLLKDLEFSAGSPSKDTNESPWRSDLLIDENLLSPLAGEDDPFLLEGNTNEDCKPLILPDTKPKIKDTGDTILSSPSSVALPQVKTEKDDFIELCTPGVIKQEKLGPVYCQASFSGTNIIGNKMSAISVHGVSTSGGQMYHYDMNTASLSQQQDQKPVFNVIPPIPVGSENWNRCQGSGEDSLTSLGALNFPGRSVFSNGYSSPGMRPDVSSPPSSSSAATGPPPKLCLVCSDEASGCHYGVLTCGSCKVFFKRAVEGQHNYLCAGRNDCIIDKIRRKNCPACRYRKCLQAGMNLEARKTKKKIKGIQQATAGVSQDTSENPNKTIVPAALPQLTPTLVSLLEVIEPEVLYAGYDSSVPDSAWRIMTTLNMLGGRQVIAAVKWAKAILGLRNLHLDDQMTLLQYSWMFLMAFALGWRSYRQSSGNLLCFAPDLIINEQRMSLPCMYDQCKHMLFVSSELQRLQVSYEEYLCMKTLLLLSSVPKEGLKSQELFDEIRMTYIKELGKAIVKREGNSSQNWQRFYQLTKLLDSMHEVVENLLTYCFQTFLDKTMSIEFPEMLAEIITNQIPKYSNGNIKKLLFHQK

[3] = target: T3, progesterone receptor (PR) (Homo sapiens, UniProt P06401); experiment: Progesterone receptor binding; conditions: 10 μM
T3 sequence (P06401 1-933): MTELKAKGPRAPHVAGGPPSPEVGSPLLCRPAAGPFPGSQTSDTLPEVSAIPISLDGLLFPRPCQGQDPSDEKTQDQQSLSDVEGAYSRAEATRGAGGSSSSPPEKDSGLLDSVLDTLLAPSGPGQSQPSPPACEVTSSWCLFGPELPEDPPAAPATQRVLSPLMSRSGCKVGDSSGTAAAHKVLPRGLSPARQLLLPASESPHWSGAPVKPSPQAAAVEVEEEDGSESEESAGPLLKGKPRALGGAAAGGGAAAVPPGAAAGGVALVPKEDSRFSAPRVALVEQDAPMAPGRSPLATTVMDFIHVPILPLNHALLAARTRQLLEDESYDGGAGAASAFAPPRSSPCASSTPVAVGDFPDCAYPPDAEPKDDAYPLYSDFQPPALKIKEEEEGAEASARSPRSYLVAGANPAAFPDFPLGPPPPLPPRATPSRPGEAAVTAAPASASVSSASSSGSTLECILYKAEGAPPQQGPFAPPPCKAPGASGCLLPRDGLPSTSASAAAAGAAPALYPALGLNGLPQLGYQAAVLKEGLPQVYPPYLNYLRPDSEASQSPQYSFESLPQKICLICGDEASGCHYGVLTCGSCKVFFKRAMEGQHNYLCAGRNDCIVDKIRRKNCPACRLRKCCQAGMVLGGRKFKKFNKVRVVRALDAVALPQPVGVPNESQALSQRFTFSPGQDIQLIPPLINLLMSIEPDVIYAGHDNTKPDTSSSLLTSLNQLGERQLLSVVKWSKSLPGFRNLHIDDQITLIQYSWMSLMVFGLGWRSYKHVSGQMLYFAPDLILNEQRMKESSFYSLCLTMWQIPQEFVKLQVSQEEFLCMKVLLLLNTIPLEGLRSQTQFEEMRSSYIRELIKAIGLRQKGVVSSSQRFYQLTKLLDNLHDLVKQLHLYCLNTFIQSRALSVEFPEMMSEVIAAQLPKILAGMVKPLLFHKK

Wobbler mouse = Wobbler mouse model of ALS; type: in vivo; conditions: administration for 21 days
[4] = test system: effect of prednisone on eosinophils, lymphocytes, neutrophils, osteocalcin; experiment: First In Human study Part 3, proof of pharmacological effect (prednisone challenge); type: in vivo; conditions: prednisone+dazucorilant vs. prednisone alone
Excerpt: Linear mixed model of PD parameter estimates from part 3 of the FIE study, including terms for treatment fitted as a fixed effect, subject fitted as a random effect, and baseline concentration values fitted as a covariate. AUEC, area under the effect curve; cfb, change from baseline; CI, confidence interval; Emax, maximum change; ns, not significant.

**Q.** Which results are given for O=C(c1ccccn1)[C@]12Cc3cnn(-c4ccc(F)cc4)c3C=C1CCN(S(=O)(=O)c1ccc(C(F)(F)F)cc1)C2 [dazucorilant, (R)-(1-(4-fluorophenyl)-6-((4-(trifluoromethyl)phenyl)sulfonyl)-4,4a, 5,6,7,8-hexahydro-1-H-pyrazolo[3,4-g]isoquinolin-4a-yl) (pyridin-2-yl)methanone]?
**A.** pKi (GR [1]): 9.55; pKi (GR [2]): 8.38; binding to progesterone receptor [3]: 0%; forepaw atrophy (Wobbler mouse): reducing forepaw atrophy; neurodegeneration and inflammation (Wobbler mouse): inhibiting neurodegeneration and inflammation; performance in the rotarod test (Wobbler mouse): overcoming the impaired performance in the rotarod test; effect of dazucorilant on prednisone-induced changes in eosinophils, lymphocytes, osteocalcin, neutrophils [4]: ameliorated the effect of prednisone on these parameters
